Reference: patent US8741871B2, “Trehalose compound, method for producing same, and pharmaceutical product containing the compound” (priority 2008, dated 2014)

Tested on: Welch bacillus toxin (recombinant α-toxin)
Details: in vivo, ip

CCCCCCCCCCC(CCCCCCCCCC)C(=O)OCC1O[C@H](O[C@H]2OC(COC(=O)C(CCCCCCCCCC)CCCCCCCCCC)[C@@H](O)C(O)C2O)C(O)C(O)[C@@H]1O (stereo partly drawn) [Example 1, 6,6′-bis-O-(2-decyldodecanoyl)-α,α′-trehalose]
Number of surviving mice/number of treated mice, 2 hours later: 4/4 | Number of surviving mice/number of treated mice, 6 hours later: 4/4 | Number of surviving mice/number of treated mice, 12 hours later: 4/4 | Number of surviving mice/number of treated mice, 24 hours later: 3/4 | Number of surviving mice/number of treated mice, 48 hours later: 3/4
